From article PMC7071059, “Targeting Receptor Tyrosine Kinase VEGFR-2 in Hepatocellular Cancer: Rational Design, Synthesis and Biological Evaluation of 1,2-Disubstituted Benzimidazoles” (Molecules, 2020)

Key:
FGFR-1 = FGFR-1 (Homo sapiens, UniProt P11362); experiment: Biochemical kinase assay (Kinase-Glo Plus luminescence)
Procedure: (§1) This assay was carried out using the VEGFR-2 kinase enzyme system or FGFR-1 kinase enzyme system and Kinase-Glo Plus luminescence kinase (Promega) kits according to the manufacturers´ protocols. This assay evaluated the activity of kinase by measuring the amount of ATP remaining in solution after a kinase reaction. The luminescent signal from the assay was related to the quantity of ATP available, which was inversely proportional to the amount of kinase activity. […] Subsequently, serial dilutions were carried out, and 5 µL of the dilution was added to a 50 µL reaction. The enzymatic reactions were performed at 30 °C for 45 minutes. […] After the enzymatic reaction, 50 µL of Kinase-Glo Plus Luminescence kinase assay solution was added to each reaction, and the plates were incubated for 15 minutes at room temperature. The luminescence signal was measured using a Tecan–spark multimode microplate reader. The difference between luminescence intensities in the absence of Kinase (Lut) and in the presence of Kinase (Luc) was defined as 100% activity (Lut − Luc). Using a luminescence signal (Lu) in the presence of the compound, % activity was calculated as: % activity = {(Lut − Lu)/(Lut − Luc)}×100%, where Lu = the luminescence intensity in the presence of the compound.

PDGFR-β = PDGFR-β (Homo sapiens, UniProt P09619); experiment: Biochemical kinase assay
Procedure: as §1

HepG2 cells [1] = experiment: Analysis of cell cycle distribution, flow cytometry of propidium iodide-stained nuclei; format: cell-based, human; settings: HepG2, 2 µM, 48 h
Procedure: Based on the promising antiproliferative activity and antiangiogenic activity of series 17, compound 17a was further assayed for its effect on the cell cycle distribution by flow cytometric analyses of propidium iodide-stained nuclei at 2 µM. Cell cycle parameters were compared for HepG2 cells with DMSO as control and after treatment with 17a and incubation for 48 h, and the results were depicted in Figure 8.
After treatment with test compounds for 48 h, cells (10^5 cells) were collected by trypsinization and washed twice with ice-cold PBS (pH 7.4). Cells were resuspended in two milliliters of 60% ice-cold ethanol and incubated at 4 °C for 1 h for fixation. Fixed cells were washed twice again with PBS (pH 7.4) and resuspended in 1 mL of PBS containing 50 µg/mL RNAase A and 10 µg/mL propidium iodide (PI). After 20 min of incubation in dark at 37 °C, cells were analyzed for DNA contents using flow cytometry analysis using an FL2 (λex/em 535/617 nm) signal detector (ACEA Novocyte™ flowcytometer, ACEA Biosciences Inc., San Diego, CA, USA). For each sample, 12,000 events were acquired. The cell cycle distribution was calculated using ACEA NovoExpress™ software (ACEA Biosciences Inc., San Diego, CA, USA).

HepG2 cells [2] = experiment: Apoptosis assay, Annexin V-FITC/PI flow cytometry; format: cell-based, human; settings: 48 h; for early apoptotic phase (Q4): control 0.80%; for late apoptotic phase (Q2): control 4.59%
Excerpt: Moreover, in order to examine the effect of compound 17a on cell apoptosis (programed cell death), the morphological markers of apoptosis of the HepG2 cell line were examined before and after treatment with 17a. This assay is based on the fact that cells performing apoptosis translocate their phosphatidylserine (PS) phospholipid to the cell surface, which, in turn, can be easily detected by staining with a fluorescent conjugate of annexin V, followed by flow cytometry analysis. Concurrently, the HepG2 cells were stained with propidium iodide (PI), which enters only cells with damaged plasma membranes. This stain allows the discrimination between early apoptotic cells (positive for PS, but negative for PI) from late apoptotic and necrotic cells (positive for both PS and PI).
Apoptosis and necrosis cell populations were determined using an Annexin V-FITC apoptosis detection kit (Abcam Inc., Cambridge Science Park, Cambridge, UK) coupled with 2 fluorescent channels flowcytometry. After treatment with test compounds for 48 h, cells (10^5 cells) were collected by trypsinization and washed twice with ice-cold PBS (pH 7.4). Then, cells were incubated in the dark with 0.5 ml of Annexin V-FITC/PI solution for 30 min in the dark at room temperature, according to the manufacturer’s protocol. After staining, cells were injected via ACEA Novocyte™ flowcytometer (ACEA Biosciences Inc., San Diego, CA, USA) and analyzed for FITC and PI fluorescent signals using FL1 and FL2 signal detectors, respectively (λex/em 488/530 nm for FITC and λex/em 535/617 nm for PI). For each sample, 12,000 events were acquired, and positive FITC and/or PI cells were quantified by quadrant analysis and calculated using ACEA NovoExpress™ software (ACEA Biosciences Inc., San Diego, CA, USA).

PDGFR-β, sequence (P09619 33-1106): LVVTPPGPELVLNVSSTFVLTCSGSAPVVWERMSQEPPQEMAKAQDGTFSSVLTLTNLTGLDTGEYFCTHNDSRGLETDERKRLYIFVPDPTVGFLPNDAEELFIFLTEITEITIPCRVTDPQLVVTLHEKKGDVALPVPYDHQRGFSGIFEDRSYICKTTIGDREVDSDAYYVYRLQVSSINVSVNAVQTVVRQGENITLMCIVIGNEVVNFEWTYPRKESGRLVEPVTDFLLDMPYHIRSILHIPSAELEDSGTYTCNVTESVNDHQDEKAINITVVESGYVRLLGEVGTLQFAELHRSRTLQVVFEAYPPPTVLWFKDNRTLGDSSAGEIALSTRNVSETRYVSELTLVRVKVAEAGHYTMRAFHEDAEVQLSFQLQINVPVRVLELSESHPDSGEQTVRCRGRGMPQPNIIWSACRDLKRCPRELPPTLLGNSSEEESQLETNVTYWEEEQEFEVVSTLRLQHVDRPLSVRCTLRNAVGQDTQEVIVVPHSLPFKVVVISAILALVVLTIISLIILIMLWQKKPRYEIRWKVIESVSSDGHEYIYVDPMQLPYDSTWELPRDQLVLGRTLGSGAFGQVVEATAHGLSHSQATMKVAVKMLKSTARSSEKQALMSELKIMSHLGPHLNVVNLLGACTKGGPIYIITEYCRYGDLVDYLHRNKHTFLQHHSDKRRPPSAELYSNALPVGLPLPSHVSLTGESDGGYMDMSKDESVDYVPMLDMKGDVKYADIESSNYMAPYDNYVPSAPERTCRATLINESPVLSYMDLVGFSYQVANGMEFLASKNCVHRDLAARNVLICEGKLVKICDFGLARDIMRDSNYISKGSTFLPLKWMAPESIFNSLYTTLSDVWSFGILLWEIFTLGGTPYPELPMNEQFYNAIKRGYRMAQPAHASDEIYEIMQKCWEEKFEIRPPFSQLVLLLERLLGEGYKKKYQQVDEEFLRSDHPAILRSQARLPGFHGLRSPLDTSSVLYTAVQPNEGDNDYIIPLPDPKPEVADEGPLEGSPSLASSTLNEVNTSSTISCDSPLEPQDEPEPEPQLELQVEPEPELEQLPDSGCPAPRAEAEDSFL
FGFR-1, sequence (P11362 22-822): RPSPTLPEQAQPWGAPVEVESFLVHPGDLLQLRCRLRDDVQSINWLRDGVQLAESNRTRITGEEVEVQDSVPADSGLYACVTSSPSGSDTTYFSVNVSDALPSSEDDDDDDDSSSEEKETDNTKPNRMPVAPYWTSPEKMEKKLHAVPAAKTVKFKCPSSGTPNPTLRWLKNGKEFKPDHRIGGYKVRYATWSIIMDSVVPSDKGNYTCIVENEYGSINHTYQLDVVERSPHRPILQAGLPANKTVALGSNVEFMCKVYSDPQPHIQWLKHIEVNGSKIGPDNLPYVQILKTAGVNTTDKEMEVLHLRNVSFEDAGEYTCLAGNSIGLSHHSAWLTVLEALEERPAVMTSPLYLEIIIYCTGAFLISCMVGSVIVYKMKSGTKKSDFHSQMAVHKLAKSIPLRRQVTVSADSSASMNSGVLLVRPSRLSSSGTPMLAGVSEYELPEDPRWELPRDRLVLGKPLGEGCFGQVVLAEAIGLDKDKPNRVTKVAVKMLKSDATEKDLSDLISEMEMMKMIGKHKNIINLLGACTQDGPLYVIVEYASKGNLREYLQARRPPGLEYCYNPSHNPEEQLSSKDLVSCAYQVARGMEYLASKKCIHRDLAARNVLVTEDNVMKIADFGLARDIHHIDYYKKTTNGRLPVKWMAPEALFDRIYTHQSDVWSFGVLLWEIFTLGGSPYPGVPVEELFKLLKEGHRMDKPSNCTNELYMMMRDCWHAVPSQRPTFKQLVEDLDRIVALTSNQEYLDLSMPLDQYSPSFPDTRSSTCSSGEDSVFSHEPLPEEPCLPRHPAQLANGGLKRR

CC(C)c1nc2ccccc2n1CC(=O)N/N=C/c1cccc(OCc2ccccc2)c1 [Compound 17a, (E)-N′-(3-(Benzyloxy)benzylidene)-2-(2-isopropyl-1H-benzo[d]imidazol-1-yl)acetohydrazide]
IC50 (FGFR-1): 110 ± 4 nM | IC50 (PDGFR-β): 50 ± 2 nM | Freq S (HepG2 cells [1]): 26.96% | effect on the HepG2 cell cycle (HepG2 cells [1]): arrests the cell cycle at the G2/M phase | percent of cells accumulated in the G2 phase (Freq G2) (HepG2 cells [1]; control 13.43%): 25.86% | percent of cell distribution in the G1 phase (Freq G1) (HepG2 cells [1]; control 51.34%): 46.96% | early apoptotic phase (Q4) (HepG2 cells [2]; HepG2, 2 μM): 2.90% | late apoptotic phase (Q2) (HepG2 cells [2]; HepG2, 2 μM): 8.89% | early apoptotic phase (Q4) (HepG2 cells [2]; HepG2, 5 μM): 6.32% | late apoptotic phase (Q2) (HepG2 cells [2]; HepG2, 5 μM): 9.53%
